Entries after “also recorded” stand apart in the source; their conditions may differ.
Key:
Nluc [1] = target: T1, Nluc (Oplophorus gracilirostris, UniProt Q9GV45, A31E/A60N/A81I/F95D/I117V/K70R/L54V/L99Q/M102K/N193R/P142E/Q151K/Q38R/Q45L/V71I/Y165I); assay: Selective deactivation by DTT (FIG. 18A); type: biochemical
T1 construct: purchased Prolume Inc
Excerpt: (§1) Selective deactivation agents that are suitable for the invention include, but not limited to, Dithiothreitol (DTT), beta-mercaptoethylamine, tris-carboxyethylphosphine (TCEP). The suitable concentrations of the agent (e.g., DTT) for selectively deactivating the first luciferease may range from 0.001M to 2M, e.g., from 0.01M to 0.5M, from 0.05M to 1M, 0.07M to 0.5M, or about 0.1M.

Gluc [2] = assay: Selective deactivation by DTT (FIG. 18B); type: biochemical, Gaussia princeps
Procedure: as §1
In each cycle a mixture of NLRTs were incubated with the DNA template to be sequenced in the presence of a DNA polymerase. These NLRTs include 7-deaza-7-biotin-linker-3′-azidomethyl-dATP, 5-biotin-linker-3′-azidomethyl-dTTP, 5-digoxin-linker-3′-azidomethyl-dTTP, 5-digoxin-linker-3′-azidomethyl-dCTP, and 3′-azidomethyl-dGTP. Streptavidin-conjugated Gluc (recognizing biotin-labeled nucleotides A and T) was added to the sequencing flow cell followed by adding substrate CTZ. Bioluminesnce signals from the cleavage of CTZ by the Gluc was collected. […] Subsequently, Nluc-conjugated anti-Digoxin antibody was added to the flow cell to bind the Digoxin-labeled nucleotides (T and C). No signals for G were detected as expected.

[3] = On-board stability of substrates in reaction buffer (FIG. 5); type: physicochemical; conditions: room temperature 24 hours in reaction buffer, compared with fresh condition
Procedure: The term “on-board stability” refers to the stability of […] in reaction buffer under the room temperature for 24 hours.
To develop the substrate reaction buffer into a robust reagent kit for the bioluminescence-based sequencing platform, both on-board stability and long term shelf life have been evaluated. […] We evaluated the room temperature stability for 24 hours (referred as on-board stability) for both CTZ and f-CTZ in the reaction buffer formulation listed above.

Solubility of substrates = type: physicochemical
Procedure: An optimal organic solvent as substrate stock buffer was needed to obtain good solubility and good stability. Different organic solvents and mixes were tested, such as ethanol, propylene glycol, methonal, DMSO, and mixes of these solvents at different ratios.

[4] = Long-term shelf life of substrates in reaction buffer (FIG. 6); type: physicochemical; conditions: 300 uM in reaction buffer, −20° C.
Procedure: Long-term shelf life (long-term stability) was also evaluated for the substrate reaction buffer formulation. 300 uM substrate was diluted in the reaction buffer and stored at −20° C. One aliquot was thaw and tested against the fresh luciferase. Data at each time point was the relative signal intensity ratio compared to a fresh luciferase/substrate pair.

Gluc [5] = assay: Luciferase signal after incubation with SMCC linker or iodoacetamide (FIG. 10B); type: biochemical, Gaussia princeps
Procedure: (§2) We investigated the detailed luciferase structures to find the reason for the signal drop. […] To confirm this hypothesis, lodoacetamide was used to incubate with both Gluc and Nluc. Lodoacetamide can bind covalently to the thiol group of cysteine so the protein cannot form disulfide bonds, as illustrated in FIG. 10A. […] This was the reason why there is signal loss after incubating the SMCC with Nluc/Gluc which leads to low signal intensity for the final antibody conjugates.

Nluc [6] = target: T1, Nluc; assay: Signal and thermostability after Traut's modification (FIG. 11C, 11D); type: biochemical
Excerpt: (§3) Other conjugation methods were also attempted to avoid the side reactions from SMCC. […] After purification of each reaction, the luciferase after Traut's treatment and the antibody after SMCC treatment were mixed together to react through the —SH group on the luciferase and maleimide on the SMCC group on antibody.
Beside signal evaluation, stability study had also been investigated. […]

Gluc [7] = assay: as above; type: biochemical, Gaussia princeps
Procedure: as §3
Beside signal evaluation, stability study had also been investigated. […] For Nluc, Traut's modification (1:1 ratio) helps to improve stability and signal for about 30% at 50° C.

Nluc mutant = target: T2, Nluc mutant (Oplophorus gracilirostris, UniProt Q9GV45, A31E/A60N/A81I/F95D/I117V/K70R/L54V/L99Q/M102K/N193R/P142E/Q151K/Q38R/Q45L/V71I/Y165I); assay: Screening of CTZ analogs as substrate (FIG. 4); type: biochemical; conditions: with Nluc mutant
T2 construct: purchased Prolume Inc

Nluc [8] = target: T1, Nluc; assay: Luciferase signal after incubation with SMCC linker or iodoacetamide (FIG. 10B); type: biochemical; conditions: Nluc:iodoacetamide 1:10 ratio at RT for 30 min
Procedure: as §2

[9] = Stability of luciferases in cells (Table 1); type: cell-based
[10] = relative; each luciferase with the substrate listed in Table 1
Excerpt: Preferably the luciferase is relatively small (e.g., less than 30 KDa) so that they can be readily engineered, e.g., be coupled to or fused to an affinity reagent disclosed herein. […] Other non-limiting examples of luciferases that can be used include Nanoluc (Promega) and NanoKaz (NanoLight Technology), which also comprise a sequence of SEQ ID NO: 2.

[11] = Cross-substrate reactivity of Nluc with the Gluc substrate (FIG. 3); type: biochemical
Procedure: In some embodiments, the luciferase is incubated with the substrate for a sufficient amount of time to allow the development of the signal before detection. The step of signal development may last between 5 to 30 minutes, for example, about 10 minutes.

[12] = Side-by-side signal intensity comparison of commercial luciferases (FIG. 2); type: biochemical; conditions: integrated signal intensity from the first 10 sec
Excerpt: However, it was still multiple fold intensity higher than the rest of the counterparts. […] The integrated signal intensity from the first 10 sec was obtained from each luciferase/substrate pair to have the comparison.

Molecule: O[C@H](CS)[C@H](O)CS (racemic) [DTT, Dithiothreitol]
- signal change after DTT treatment (Nluc [1]): did not impair the activity; also recorded: no significant changes
- deactivation in sequencing flow cell (Gluc [2]; 100 mM DTT): deactivated Gluc
- signal reduction after DTT treatment (Gluc [2]; Gluc): more than 95%

Molecule: Oc1ccc(Cc2nc3c(Cc4ccccc4)nc(-c4ccc(O)cc4)cn3c2O)cc1 [CTZ, coeleterazine]
- on-board stability [3]: no significant difference; also recorded: not significantly different
- water solubility (Solubility of substrates): not water-soluble
- long-term stability (relative signal intensity versus fresh luciferase/substrate pair) ([4]; Gluc/CTZ, 6 months): no significant signal drop

Molecule: O=C(ON1C(=O)CCC1=O)C1CCC(CN2C(=O)C=CC2=O)CC1 (stereo not shown) [SMCC]
- signal drop after incubating with SMCC linker (Gluc [5]; Gluc): 15%-30%

Molecule: N=C1CCCS1 [Traut's reagent, 2-iminothiolane]
- thermostability after Traut's modification (Nluc [6]; Nluc modified or unmodified, 70° C. for 1 hour): cannot survive 70 °C
- signal increase after Traut's modification (in words) (Nluc [6]; Nluc, 1:1 molar ratio gives the highest signal): doubled
- signal increase after Traut's modification (Gluc [7]; 1:1 molar ratio gives the highest signal): 60%
- thermostability after Traut's modification (Gluc [7]; 50° C. or 70° C. for 1 hour): worse stability

Molecule: O=c1c(Cc2ccc(F)cc2)nc2c(Cc3ccccc3)[nH]c(-c3ccc(O)cc3)cn1-2 [f-CTZ, fluorinated coeleterazine]
- on-board stability [3]: no significant difference; also recorded: not significantly different
- water solubility (Solubility of substrates): not water-soluble
- long-term stability (relative signal intensity versus fresh luciferase/substrate pair) ([4]; Nluc/f-CTZ, 4 months): no significant signal drop
- signal intensity among the different CTZ analog structures (Nluc mutant): optimal substrate; also recorded: highest signal intensity

Molecule: NC(=O)CI [lodoacetamide, Iodoacetamide]
- signal lost after reacting with iodoacetamide (Nluc [8]): lost all signal
- signal lost after reacting with iodoacetamide (Gluc [5]; Gluc:iodoacetamide 1:10 ratio at RT for 30 min, fraction of signal): 2/3

Molecule: firefly: firefly luciferase, substrate D-Luciferin
- Stability in cells [9]: 0.00694 days
- Signal intensity [10]: 1

B1: Nluc: NanoZac luciferase polypeptide (SEQ ID NO: 2), Prolume Inc. (protein)
chain: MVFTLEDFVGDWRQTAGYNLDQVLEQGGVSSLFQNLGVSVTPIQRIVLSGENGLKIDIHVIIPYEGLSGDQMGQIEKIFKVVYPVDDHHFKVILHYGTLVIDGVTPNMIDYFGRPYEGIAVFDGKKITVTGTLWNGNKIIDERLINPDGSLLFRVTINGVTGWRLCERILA
- background signal when reacting with the Gluc substrate ([11]; Nluc with CTZ): about 10%
- cross-substrate reactivity ([11]; in words, FIG. 3): no significant cross-substrate reactivity
- signal compared to the Gluc mutant [12]: half

B2: Nanoluc: Nanoluc luciferase (Promega), substrate Furimazine (protein)
chain: B1 chain
- Stability in cells [9]: 7.7 days
- Signal intensity [10]: 80

B3: NanoKaz: NanoKaz luciferase (NanoLight Technology), substrate Coelenterazine-F (protein)
chain: B1 chain
- Stability in cells [9]: 7.7 days
- Signal intensity [10]: 150

B4: Gaussia: Gaussia luciferase (GLuc), substrate Coelenterazine (protein)
chain: MKPTENNEDFNIVAVASNFATTDLDADRGKLPGKKLPLEVLKELEANARKAGCTRGCLICLSHIKCTPKMKKFIPGRCHTYEGDKESAQGGIGEAIVDIPEIPGFKDLEPLEQFIAQVDLCVDCTTGCLKGLANVQCSDLLKKWLPQRCATFASKIQGQVDKIKGAGGDHHHHHH
- Stability in cells [9]: 10.5 days
- Signal intensity [10]: 160

Reference: patent US20230366023A1, “METHODS AND COMPOSITIONS FOR BIOLUMINESCENCE-BASED SEQUENCING” (BGI Shenzhen Co., Ltd., priority 2020, published 2023)
